{
  "source": "patent US10912815B2",
  "about": "“Inhibitors of mitochondrial fission and methods of use thereof” (The Board of Trustees of the Leland Stanford Junior …, priority 2011, dated 2021)",
  "key": {"[1]": {"tested_on": "isolated mouse liver mitochondria with Drp1 recombinant protein", "test": "Cytochrome c levels in isolated mouse liver mitochondria incubated with Drp1", "type": "biochemical", "conditions": "8 min of Drp1 incubation, FIG. 6D top", "experimental": "Mitochondrial membrane potential was also determined using TMRM (tetramethylrhodamine methylester). Fifty μg of mitochondria were incubated with recombinant Drp1 (50 ng) followed by incubation with TMRM (0.5 μM) in the presence or absence of P110 (1 μM) or NAC (2.5 mM). Fluoresence detection was performed using black 96-well plates in a fluorescence microplate reader at 560 nm excitation and 690 nm emission and potential was assessed by quenching of the fluorescent signal. The data are presented as mean±S.E. of percentage relative to control mitochondria from three independent experiments (FIG. 6B, #, p<0.05 vs. control cells; *, p<0.05; **, P<0.01 vs. MPP+- or CCCP-treated cells). Isolated mouse liver mitochondria (50 μg) were incubated with Drp1 recombinant protein (50 ng) in the presence or absence of P110 (1 μM). A kinetic change of mitochondrial superoxide production was determined by using MITOSOX™ (red mitochondrial superoxide indicator). […] Mitochondrial membrane potential of isolated mouse liver mitochondria was determined by TMRM, as described above, in the indicated groups. […] Protein levels of cytochrome c in the mitochondria were determined by western blot analysis with anti-cytochrome c antibodies in the indicated groups (insert, FIG. 6D). Total ROS production was determined by staining SH-SY5Y cells with CM2HDCFA (1 μM […] at 37° C.) in the indicated groups. […]"}, "[2]": {"tested_on": "SH-SY5Y cells", "test": "Autophagy marker LC3 in SH-SY5Y cells", "type": "cell-based, human", "conditions": "MPP+", "source_text": "Autophagy is another consequence of excessive mitochondrial fission (Twig et al., 2008, EMBO J 27:433-446; Wikstrom et al., 2009, Int J Biochem Cell Biol 41:1914-1927). Autophagy can be measured by the induction of the autophagic marker LC3 (microtubule-associated protein 1, light chain 3, also known as ATG8). Cultured SH-SY5Y cells were stained by anti-LC3 antibodies and nuclei were stained by Hoechsts staining. A histogram (FIG. 9C) depicts the number of LC3-positive punctate/per cell in the indicated groups. The data are presented as the mean±S.E. of three independent experiments. Western blot analysis of LC3 I/II with anti-LC3 antibodies is shown and is presented as a histogram where the data are expressed as mean±S.E. of three independent experiments (FIG. 9D, left panel)."}, "[3]": {"molecular_target": "Drp1/Fis1 interaction (Homo sapiens, UniProt O00429)", "sequence (O00429 whole entry)": "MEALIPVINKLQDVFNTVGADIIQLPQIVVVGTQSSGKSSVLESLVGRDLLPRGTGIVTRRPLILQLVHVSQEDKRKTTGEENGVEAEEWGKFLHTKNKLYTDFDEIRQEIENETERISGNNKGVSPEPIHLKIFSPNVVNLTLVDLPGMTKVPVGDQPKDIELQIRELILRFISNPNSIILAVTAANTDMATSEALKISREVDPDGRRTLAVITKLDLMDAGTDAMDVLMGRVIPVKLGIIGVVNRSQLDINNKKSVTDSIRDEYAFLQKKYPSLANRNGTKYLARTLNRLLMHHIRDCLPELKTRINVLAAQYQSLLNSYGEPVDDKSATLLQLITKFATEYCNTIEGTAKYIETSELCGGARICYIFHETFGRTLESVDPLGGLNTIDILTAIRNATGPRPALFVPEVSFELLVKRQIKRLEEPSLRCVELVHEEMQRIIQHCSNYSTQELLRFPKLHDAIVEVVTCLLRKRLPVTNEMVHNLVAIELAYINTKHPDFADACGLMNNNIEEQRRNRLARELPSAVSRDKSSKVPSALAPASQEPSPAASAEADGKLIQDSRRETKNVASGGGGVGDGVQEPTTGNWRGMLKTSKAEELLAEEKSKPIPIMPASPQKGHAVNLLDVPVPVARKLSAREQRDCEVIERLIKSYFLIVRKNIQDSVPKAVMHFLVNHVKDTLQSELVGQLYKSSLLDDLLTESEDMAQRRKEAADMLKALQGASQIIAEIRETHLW", "test": "Drp1-Fis1 interaction in cultured SH-SY5Y neuronal cells (crosslink, immunoprecipitation)", "type": "cell-based", "parameters": "endogenous in cells; host or cells: SH-SY5Y", "conditions": "peptides 1 μM, FIG. 2E", "experimental": "SH-SY5Y cells were treated with Drp1 peptides P110, P109, P112 or TAT47-57 only (1 μM). Because the interaction between Drp1 and Fis1 is transient and dynamic, cells were treated with the crosslinker, DSP, (0.75 mM for 30 min), as described in a previous study (Yoon et al., 2003, Mol Cell Biol 23:5409-5420). The cells were lysed in total cell lystes (50 mM Tris-HCl, pH 7.5, containing 150 mM NaCl, 1% Triton X-100, and protease inhibitor). Immunoprecipitates were analyzed by SDS-PAGE and immunoblotting with antibodies to Drp1, VDAC, and Fis1. VDAC was used as a loading control"}, "[4]": {"molecular_target": "Recombinant protein Drp1 (Homo sapiens, UniProt O00429)", "sequence (O00429 1-710 isoform O00429-3)": "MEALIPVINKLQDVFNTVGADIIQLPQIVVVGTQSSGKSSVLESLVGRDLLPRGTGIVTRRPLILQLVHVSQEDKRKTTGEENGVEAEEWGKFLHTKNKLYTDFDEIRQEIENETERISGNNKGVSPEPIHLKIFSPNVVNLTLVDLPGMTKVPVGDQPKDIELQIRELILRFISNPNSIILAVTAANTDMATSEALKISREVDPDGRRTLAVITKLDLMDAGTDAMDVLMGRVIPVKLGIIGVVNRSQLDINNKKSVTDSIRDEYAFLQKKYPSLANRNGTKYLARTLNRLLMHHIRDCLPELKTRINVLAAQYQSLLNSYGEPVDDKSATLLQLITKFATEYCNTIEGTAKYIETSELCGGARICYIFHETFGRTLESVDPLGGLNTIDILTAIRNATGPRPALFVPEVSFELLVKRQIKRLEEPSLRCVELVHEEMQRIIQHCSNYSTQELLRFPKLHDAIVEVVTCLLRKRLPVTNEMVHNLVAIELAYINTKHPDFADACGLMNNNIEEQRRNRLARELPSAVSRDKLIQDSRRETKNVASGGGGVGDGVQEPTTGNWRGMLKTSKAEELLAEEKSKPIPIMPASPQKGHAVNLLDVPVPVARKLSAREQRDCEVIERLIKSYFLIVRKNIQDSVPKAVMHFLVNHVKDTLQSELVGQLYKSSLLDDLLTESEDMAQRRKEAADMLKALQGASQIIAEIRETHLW", "test": "In vitro GTPase assay, recombinant Drp1", "type": "biochemical", "experimental": "First, mitochondrial fission inhibitor constructs were tested to determine what, if any, effects each peptide had on enzyme (GTPase) activity. Recombinant protein Drp1, Mfn1, OPA1 or dynamin-1 (25 ng) was incubated with the indicated modulator peptides for 30 min. GTPase activity was assayed in vitro using a GTPase assay kit (Innova Biosciences, Littleton, USA, or Novus Biologicals, Littleton, Colo.) according to manufacturer's instructions."}, "[5]": {"tested_on": "SH-SY5Y cells", "test": "Apoptosis of SH-SY5Y cells by annexin V staining", "type": "cell-based, human", "conditions": "8 hours after MPP+ exposure, FIG. 9B", "experimental": "Apoptosis was determined by annexin V staining 8 hours after MPP+ exposure. The number of apoptotic cells was expressed as mean±S.E. of percentage relative to total number of cells."}, "[6]": {"tested_on": "Drp1", "test": "Confocal imaging of Drp1 localization on mitochondria in SH-SY5Y cells", "type": "cell-based, human", "conditions": "SH-SY5Y exposed to MPP+ or CCCP, FIG. 3G", "experimental": "The effects of MPP+ or CCCP on translocation of Drp1 in the absence and presence of P110 was measured using confocal microscopy. Cultured SH-SY5Y cells in black 96-well plate were treated with Drp1 peptide inhibitor P110 (1 μM) 30 min prior to treatment of MPP+ (2 mM) or CCCP (5 uM). After 2 hrs of treatment, cells were stained with MITOSOX™ (red mitochondrial superoxide indicator) (5 uM, for 10 min, mitochondrial ROS) or TMRM (0.5 uM, for 20 min, MMP) at 37° C. For total ROS detection, cells were treated with MPP+ or CCCP for 24 hrs. ROS level was measured by CM-H2DCFDA (1 μM for 30 min, Invitrogen). Cells were washed with PBS for three times. The detection was performed in a fluorescence microplate reader (Tecan, Infinite M1000) according to manufacturer's instructions. Measurements were normalized to the cell number counted using Hoechst staining.\nThe data, quantitated by Image J software, is provided in a histogram FIG. 3G."}},
  "note": "Entries after “also recorded” stand apart in the source; their conditions may differ. No end group written: not given here.",
  "data": [
    {"sequence": "RRRQRRKKRGYGGDLLPRGS (RRRQRRKKRGYGGDLLPRGS-NH2) [P110, TAT47-57 carrier, GG linker, Drp1 region 110 (GTPase domain) peptide DLLPRGS; C-terminus C(O)-NH2]", "values": [
      {"measurement": "cytochrome c release from the mitochondria", "setting": "[1]", "result": "inhibited cytochrome c release"},
      {"measurement": "number of LC3-positive puncti in the cells", "setting": "[2]; FIG. 9C", "result": "reduced"},
      {"measurement": "LC3 cleavage (LC3 I to LC3 II)", "setting": "[2]; FIG. 9D", "result": "reduced"},
      {"measurement": "Drp1-Fis1 interaction in cultured SH-SY5Y neuronal cells", "setting": "[3]", "result": "inhibited interaction of Drp1 and Fis1; also recorded: Inhibition"},
      {"measurement": "specifically inhibited Drp1 GTPase activity", "setting": "[4]; in vitro GTPase assay, n=3, first statement of b271", "result": 30, "unit": "%"},
      {"measurement": "inhibition in the GTPase activity of recombinant Drp1", "setting": "[4]; recombinant Drp1 25 ng, 30 min incubation with peptide, FIG. 2A", "result": 50, "unit": "%"},
      {"measurement": "number of apoptotic cells (annexin V)", "setting": "[5]", "result": "greatly reduced"},
      {"measurement": "co-localization of Drp1 with mitochondria", "setting": "[6]", "result": "greatly reduced"}
    ]}
  ]
}
